Measurements reported in patent US20160214961A1, “NOVEL SALTS OF CRIZOTINIB AND THEIR PREPARATION” (SHILPA MEDICARE LIMITED, priority 2013, published 2016).

Experiments:
[1] = powder; cited from earlier work
[2] = cited from earlier work
[3] = class IV = low solubility and low permeability; cited from earlier work
[4] = Stability on handling and storage of the salts; type: physicochemical; details: storage for longer time; no significant or measurable change

SMILES | hygroscopicity [1] | solubility in acidic pH ([2]; acidic pH) | solubility in water ([2]; water) | Biopharmaceutics Classification System (BCS) class [3] | stability to handle and store for longer time (morphology and physicochemical characteristics) [4]
C[C@@H](Oc1cc(-c2cnn(C3CCNCC3)c2)cnc1N)c1c(Cl)ccc(F)c1Cl [Crizotinib, (R)-3-[1-(2,6-Dichloro-3-fluorophenyl)ethoxy]-5-[1-(piperidin-4-yl)-1H-pyrazol-4-yl]pyridin-2-amine] | non-hygroscopic | highly soluble | insoluble | class IV | –
C[C@@H](Oc1cc(-c2cnn(C3CCNCC3)c2)cnc1N)c1c(Cl)ccc(F)c1Cl [Crizotinib Ferulate] | – | – | – | – | adequately stable
